3 molecules from patent US20130018020A1, “INHIBITOR FOR MELANIN, AND COSMETIC COMPOSITION CONTAINING SAME” (AMOREPACIFIC CORPORATION, priority 2010, published 2013) can be followed below.

Usually inhibition stands for the relative decrease from the control value, in per cent. Low readings indicate a response near the control, high ones a response far below the control.

This test relates to Human melanoma HM3KO cells. Nature of the test: Effect on inhibition of melanin production. It counts as cell-based. The settings on record: 10 ppm of each test material, absorbance at 500 nm vs DMSO control. Here is the method: Human melanoma HM3KO cells (Y. Funasaka, Department of dermatology, Kobe university school of medicine, 5-1 Kusunoki-cho 7-chrome, Chuo-ku, Kobe 650, Japan) were cultured in 10% FBS-containing MEM (Minimum Essential Medium) under the conditions of 37° C. and 5% CO2. The cultured cells were plated on T75 flasks at a density of 3×10^5 cells per flask and allowed to stand overnight until the cells adhered to the flask wall. After the cells were confirmed to adhere to the flask wall, the medium was replaced with a fresh medium containing 10 ppm of each of the test materials shown in Table 1 below. In a control group, a DMSO-containing medium was used. In this manner, the medium was replaced with a fresh medium containing each test material once at intervals of 2-3 days, while the cells were cultured until the flask was filled with the cells. When the cells completely grew, the cells were collected, and the color thereof was compared between the control group and each of the groups treated with the test material. In addition, after the culture medium has been removed and the cells were washed with PBS, the cells were dissolved in 1N sodium hydroxide, and the absorbance at 500 nm was measured. Based on the measurements, the inhibition (%) of melanin production was calculated using the following equation 1, and the results of the calculation are shown in Table 1 below. Inhibition (%) of melanin production=[…] [Equation 1]
As for `O=c1cc(CO)occ1O` [Kojic acid], the inhibition at 10 ppm amounted to 28.3%. In turn, `NC(=O)c1cccnc1` [Nicotinic acid amide] had an inhibition at 10 ppm of 29.5%.

Molecule `NC[C@H]1CC[C@H](C(=O)O)CC1` [Tranexamic acid] displayed an inhibition at 10 ppm of 32.2%.
